# Assay results: US10849906B2, “Use of Akt2 in diagnosis and treatment of tumor” (priority 2015, dated 2020)
# How the values were obtained:
# CCRF-CEM cells [1] = test: Cell viability by CCK-8 and combination index, CCRF-CEM; format: cell-based; details: Homo sapiens, dexamethasone alone (original), read-out: concentration of dexamethasone at which 50% viability of CCRF-CEM cells (IC50 value) was inhibited
# Experimental: (§1) As described in Example 3, the cells were cultured in RPMI 1640 complete medium containing 10% fetal bovine serum under 5% CO2 and 37° C. until reaching logarithmic growth phase, and then dexamethasone and different concentrations of Akt inhibitor were added to the culture medium, followed by further culture (for addition of dexamethasone/DMSO, for 48 hours, and for addition of the inhibitor, for 24 hours), the apoptosis was detected by Annexin V-FITC PI double staining method and proteins were detected by Western blot as described in Example 1 as well as the cell viability was detected by CCK-8 method.
# (§2) The inhibitory effect of two drugs (dexamethasone and an inhibitor) alone and in combination on various lymphocyte lines was observed by CCK-8 method (CCK-8 kit), and then the half-inhibitory concentration of each drug was calculated using the median effect equation, and the combination index (CI) of the two drugs used in combination was calculated using CompuSyn software. […]
# (§3) (3) 10 μl of CCK-8 was added to each well, and cultured for 2 hours, and the optical density (OD) was measured at 450 nm using an automatic microplate reader, and the proliferation inhibition rate of the drug on cell was calculated. […]
# CEM-DR cells = test: Cell viability by CCK-8 and combination index, CEM-DR; format: cell-based; details: Homo sapiens; dexamethasone alone (original); read-out: concentration of dexamethasone at which 50% viability of CEM-DR cells (IC50 value) was inhibited
# Experimental: as §1, §2, §3
# Jurkat cells [2] = test: Cell viability by CCK-8 and combination index, Jurkat; format: cell-based; details: Homo sapiens, dexamethasone alone (original), read-out: concentration of dexamethasone at which 50% viability of Jurkat cells (IC50 value) was inhibited
# Experimental: as §1, §2, §3
# Daudi cells [3] = test: Cell viability by CCK-8 and combination index, Daudi; format: cell-based, human; details: for effect of inhibitor in combination with dexamethasone in B lymphoma cells (in words): as shown in Table 1
# Experimental: as §1
# The inhibitory effect of two drugs (dexamethasone and an inhibitor) alone and in combination on various lymphocyte lines was observed by CCK-8 method (CCK-8 kit), and then the half-inhibitory concentration of each drug was calculated using the median effect equation, and the combination index (CI) of the two drugs used in combination was calculated using CompuSyn software.
# (1) the lymphocytes of logarithmic growth phase were taken and made to a cell suspension of 5×10^4/mL, a blank control group (5 wells), a dexamethasone group (3 wells for each concentration, triplicates), a single inhibitor group (3 wells for each concentration, triplicates), a dexamethasone plus inhibitor group (3 wells for each combined concentration, triplicates) were prepared, 180 μL of the suspension was seeded to each well of a 96-well plate, and incubated for 24 hours in an incubator at 5% CO2 and 37° C.
# Based on the drug resistance of cells, the ratio of two drugs was fixed. The dexamethasone group was cultured for 48 hours while the inhibitor group was cultured for 24 hours.
# (3) 10 μl of CCK-8 was added to each well, and cultured for 2 hours, and the optical density (OD) was measured at 450 nm using an automatic microplate reader, and the proliferation inhibition rate of the drug on cell was calculated.
# (4) the proliferation inhibition rate was calculated according to the following equation: cell proliferation inhibition rate=(1-average OD value in the test group/average OD value in the control group)×100%, and the effect of interaction between the two drugs was analyzed by Chou-Talalay combination index method.
# [4] = tested on: L-02 human-derived healthy liver cell line; test: CCK-8 viability of healthy liver cells L-02; details: FIG. 6A; for damage to liver cells: DEX 0.1 μM, inhibitors 0.8 μM
# [5] = Toxicity in tumor-bearing nude mice (peripheral blood test, organ pathology)
# Jurkat cells [6] = test: Apoptosis by Annexin V-FITC PI double staining, Jurkat; format: cell-based, human; details: compared to the only/single dexamethasone group; FIG. 2F, 4J
# Experimental: (§4) Apoptosis was detected by Annexin V-FITC PI double staining method (flow cytometry kit (FITC, PI double staining), Sangon Biotech (Shanghai) Co., Ltd.)), and the collected cells were washed once with phosphate buffered saline (PBS) (135 mM NaCl, 2.7 mM KCl, 1.5 mM KH2PO4 and 8 mM K2HPO4, pH 7.2); the 4× binding buffer was diluted to a 1× binding buffer with deionized water, then the cells were resuspended with 195 ul of the 1× binding buffer at a cell density of 2-5×10^5/ml; 5 μl of Annexin V-FITC was added to the 195 μl of the cell resuspension and mixed, and incubated in dark at room temperature for 10 minutes; the cells were washed once with 200 μl of the 1× binding buffer, and then resuspended in 190 μl of the 1× binding buffer; 10 μl of propidium iodide (20 μg/ml) was added. A flow cytometry device (Beckman company) was used for detection, and the rate of apoptosis was analyzed using Summit software.
# (§5) The cells were cultured in RPMI 1640 complete medium (Gibco company) containing 10% fetal bovine serum (FBS, Gibco company) in an incubator (Thermo company) at 5% CO2 and 37° C. until reaching logarithmic growth phase, then different concentrations of inhibitors and/or dexamethasone/ethanol/DMSO were added to the culture medium, followed by further culturing (for addition of dexamethasone/ethanol/DMSO, for 48 hours, and for addition of inhibitor, for 24 hours), and apoptosis was detected by Annexin V-FITC PI double staining and proteins were detected by Western blot, as described in Example 1.
# as §1
# The transfected cells were selected and passaged for 3 to 5 passages after resuscitation, with Interferin™ as transfection reagent, and the transfection procedure was performed in accordance with the instruction of the transfection reagent. In short, the cells of logarithmic growth phase were plated at 2×10^5/well, the cells were replaced with fresh complete medium (free of antibiotics) during transfection, siRNA was diluted with Opti-MEM and added with an appropriate amount of […]in™ and mixed, incubated at room temperature for 10 minutes prior to being added dropwise to the cells, and the cells were harvested at appropriate time. The cells were transfected with green fluorescein-labeled siRNA (FAM-siRNA) (siRNA at a final concentration of 20 μM, 1.25 μl/well), and the transfection efficiency was observed using a fluorescence microscope 24 hours later. The dexamethasone group was added 24 hours after transfection, followed by culture for further 24 hours, and then the cells were collected for observation; and the equal amount of anhydrous ethanol was added to the control group.
# Daudi cells [7] = test: Apoptosis by Annexin V-FITC PI double staining, Daudi; format: cell-based, human; details: compared to the dexamethasone group; FIG. 2K, 4L
# Experimental: as §4
# as §5, with “1. […]” for “1.”
# [8] = tested on: Akt/FoxO3a/Bim signaling pathway in CCRF-CEM cells; test: Western blot of Akt/FoxO3a/Bim signaling pathway proteins in CCRF-CEM cells; format: cell-based, human; details: for expression of p-Akt1 / expression of p-Akt2: CCRF-CEM, inhibitors 0.8 μM, FIG. 5A
# Experimental: (§6) The control group was not added with any reagents. All experiments were performed in triplicate.
# Protein detection by Western blot: in the examples of the present invention, Akt antibody (rabbit derived), phosphorylated Akt antibody (rabbit derived), FoxO3a antibody (rabbit derived), phosphorylated FoxO3a antibody (rabbit derived) and GAPDH antibody (rabbit derived) and secondary antibodies were all purchased from CST company. The cells were collected in a centrifuge tube and centrifuged at 1000 rpm, the supernatant was discarded and the cells were washed twice with PBS pre-cold at 4° C.; cell lysis buffer (150 mM NaCl, 1% NP-40, 0.1% SDS, 2 μg/ml Aprotinin, 2 μg/ml Leupeptin, 1 mM PMSF, 1.5 mM EDTA, 1 mM sodium vanadate) was added and the cells were lysed on ice for 40 minutes, the cell lysate was centrifuged at 20000 rpm, 4° C. for 15 minutes, and the supernatant was collected; a protein loading buffer for sodium dodecyl sulfate polyacrylamide (SDS-PAGE) gel electrophoresis (1.25 mL 1MTris-HCl (pH6.8), 0.5 g SDS, 25 mg BPB, 2.5 mL glycerol, 5 mL deionized water) was added, followed by boiling for 5 minutes to denature proteins; the loading buffer containing denatured proteins was applied to 10% SDS-PAGE for electrophoresis at 120 V, and then transferred to a PVDF membrane (Sangon Biotech (Shanghai) Co., Ltd.) at 130 V for 1.5 hours; after the membrane transfer was completed, the PVDF membrane was immediately rinsed with a Western washing solution (150 mmol/L NaCl, 50 mmol/L Tris-HCl (pH 7.5)) for 1-2 minutes; added with 5% non-fat milk powder (Shanghai Biotechnology Co., Ltd.), agitated gently and then blocked at room temperature for 60 minutes; a primary antibody diluted appropriately with 5% non-fat milk powder was added, and incubated overnight at room temperature with gentle agitating; the primary antibody was recovered and the membrane was washed three times with the washing solution for 5-10 minutes each; a horseradish peroxidase-labeled secondary antibody diluted appropriately with the Western washing solution was added, and incubated at room temperature for 1 hour with gentle agitating; the secondary antibody was recovered and the membrane was washed three times with the Western washing solution for 5-10 minutes each. An appropriate amount of developing solution (DAB 4 mg, 30% hydrogen peroxide 15 μL, 0.01 M Tris-Cl (pH 7.5) 5 mL) was dropped on the PVDF membrane, the image was detected using a bioluminescence image colorimeter and a gel imaging system (Thermo company), and the quantitative analysis of bands was performed using Image Lab software.
# as §5
# Methods: CCRF-CEM cells were cultured in RPMI 1640 complete medium (Gibco company) containing 10% fetal bovine serum (FBS, Gibco company) in an incubator (Thermo company) at 5% CO2 and 37° C. until reaching logarithmic growth phase, then DMSO, dexamethasone and different inhibitors (DMSO: 0.1%, dexamethasone: 0.1 μM, inhibitors: 0.8 μM) were added to the culture medium, and further cultured (for addition of dexamethasone or DMSO, for 48 hours, and for addition of inhibitors, for 24 hours), and the proteins were detected by Western blot, as described in Example 1.
# [9] = tested on: Akt/FoxO3a/Bim proteins in L-02 cells; test: Western blot of Akt/FoxO3a/Bim proteins in L-02 cells; format: cell-based, human; details: pretreated with inhibitor 0.8 μM; FIG. 6B
# Experimental: Protein detection by Western blot: in the examples of the present invention, Akt antibody (rabbit derived), phosphorylated Akt antibody (rabbit derived), FoxO3a antibody (rabbit derived), phosphorylated FoxO3a antibody (rabbit derived) and GAPDH antibody (rabbit derived) and secondary antibodies were all purchased from CST company. […] An appropriate amount of developing solution (DAB 4 mg, 30% hydrogen peroxide 15 μL, 0.01 M Tris-Cl (pH 7.5) 5 mL) was dropped on the PVDF membrane, the image was detected using a bioluminescence image colorimeter and a gel imaging system (Thermo company), and the quantitative analysis of bands was performed using Image Lab software.
# CCRF-CEM cells [10] = test: Apoptosis by Annexin V-FITC PI double staining (flow cytometry), CCRF-CEM; format: cell-based, human; details: compared to dexamethasone alone; FIG. 2A: Akt inhibitor 1 μM, dexamethasone 1 μM, LY294002 30 μM; FIG. 2G, 2J, 2K
# Experimental: as §6, §4, §5, §1
compound,measurement,setting,value
C[C@@H]1C[C@H]2[C@@H]3CCC4=CC(=O)C=C[C@]4(C)[C@@]3(F)[C@@H](O)C[C@]2(C)[C@@]1(O)C(=O)CO [dexamethasone],IC50,CCRF-CEM cells [1],0.3 µM
same,IC50,CEM-DR cells,138 µM
same,IC50,Jurkat cells [2],224 µM
same,IC50,"Daudi cells [3]; Homo sapiens, Daudi, dexamethasone alone (original), read-out: concentration of dexamethasone at which 50% viability of Daudi cells (IC50 value) was inhibited",225 µM
same,damage to liver cells,[4],no damage to liver cells
same,peripheral blood leukocyte level,"[5]; compared to the NC group, FIG. 6J",no significant difference
same,level of peripheral blood RBC,"[5]; compared to the NC group, FIG. 6K",significantly increased
same,level of peripheral blood HGB,"[5]; compared to the NC group, FIG. 6L",significantly increased
same,peripheral blood platelet level,"[5]; compared to the NC group, FIG. 6M",no significant difference
same,blood glucose level,"[5]; compared to the NC group, FIG. 6N",no significant difference
same,peripheral blood creatinine level,"[5]; compared to the NC group, FIG. 6O",no significant difference
NC1(Cc2ccc(Cl)cc2)CCN(c2ncnc3[nH]ccc23)CC1 [CCT128930],"apoptosis of Jurkat cells, inhibitor in combination with dexamethasone",Jurkat cells [6],significantly increase
same,"apoptosis of Daudi cells, inhibitor in combination with dexamethasone",Daudi cells [7],significantly increase
same,expression of p-Akt1,[8],increased
same,expression of p-Akt2,[8],increased
same,effect of inhibitor in combination with dexamethasone in B lymphoma cells (in words),Daudi cells [3],additive effect
same,expressions of p-Akt1 and p-Akt2 in L-02 cells,[9],correspondingly increased
same,damage to liver cells,[4],least damage
same,recovery of liver cell activity,[4],gradually recovered after 6 hours of administration
same,liver cell activity,[4]; after six hours of administration,56.1%
Cc1[nH]nc2ccc(-c3cncc(OC[C@@H](N)Cc4ccccc4)c3)cc12 [A-674563],"apoptosis of Jurkat cells, inhibitor in combination with dexamethasone",Jurkat cells [6],significantly increase
same,"apoptosis of Daudi cells, inhibitor in combination with dexamethasone",Daudi cells [7],significantly increase
same,expression of p-Akt1,[8],effectively inhibited
same,expression of p-Akt2,[8],compensatory increase
same,effect of inhibitor in combination with dexamethasone in B lymphoma cells (in words),Daudi cells [3],low degree of synergistic effect
same,expressions of p-Akt1 and p-Akt2 in L-02 cells,[9],correspondingly increased
same,damage to liver cells,[4],most serious damage
same,recovery of liver cell activity,[4],did not recover within 48-hour
same,liver pathology (HE staining),"[5]; 7-day administration, FIG. 8A, 8B",did not cause morphological changes of the liver tissues
same,level of TBIL,"[5]; compared to the NC group, FIG. 6I",significantly increased
same,level of peripheral blood AST,"[5]; compared to the normal saline group (NC), FIG. 3F, 6H",significantly increased
OCC1OC(O)CC(O)C1O (centres unmarked) [2-DG],"apoptosis of CCRF-CEM cells induced by dexamethasone, inhibitor plus dexamethasone",CCRF-CEM cells [10],significantly increased
same,"total FoxO3a expression, inhibitor plus dexamethasone","[8]; compared to dexamethasone alone, FIG. 2H",increased
same,"expression of pro-apoptosis factor Bim, inhibitor plus dexamethasone","[8]; compared to the only dexamethasone group, FIG. 2B, 2H",significantly up-regulated
same,"expression of phosphorylated FoxO3a, inhibitor plus dexamethasone","[8]; compared to the only dexamethasone group, FIG. 2B, 2H, 2I",decreased
